ChEMBL document CHEMBL4715814, “Design, synthesis and biological activity evaluation of novel 4-subtituted 2-naphthamide derivatives as AcrB inhibitors” (2018)
Calls of active or inactive are those of the source. No cut-off for these calls is given here.

Legend:
Escherichia coli [1] = assay: Potentiation of rifampicin-induced antibacterial activity against wild type Escherichia coli BW25113 assessed as rifampicin MIC at 128 ug/ml incubated for 18 hrs under aerobic condition by checkerboard titration assay (reference value: 16 ug/ml); assay type: functional; settings: dose 128 µg/ml
Escherichia coli [2] = assay: Potentiation of erythromycin-induced antibacterial activity against wild type Escherichia coli BW25113 assessed as erythromycin MIC at 128 ug/ml incubated for 18 hrs under aerobic condition by checkerboard titration assay (reference value: 128 ug/ml); assay type: functional; settings: dose 128 µg/ml
Escherichia coli [3] = assay: Potentiation of chloramphenicol-induced antibacterial activity against AcrB deficient Escherichia coli BW25113 assessed as chloramphenicol MIC at 256 ug/ml incubated for 18 hrs under aerobic condition by checkerboard titration assay (reference value: 2 ug/ml); assay type: functional; settings: dose 256 µg/ml
Escherichia coli [4] = assay: Potentiation of rifampicin-induced antibacterial activity against wild type Escherichia coli BW25113 assessed as rifampicin MIC at 256 ug/ml incubated for 18 hrs under aerobic condition by checkerboard titration assay (reference value: 16 ug/ml); assay type: functional; settings: dose 256 µg/ml
Escherichia coli [5] = assay: Potentiation of erythromycin-induced antibacterial activity against wild type Escherichia coli BW25113 assessed as erythromycin MIC at 256 ug/ml incubated for 18 hrs under aerobic condition by checkerboard titration assay (reference value: 128 ug/ml); assay type: functional; settings: dose 256 µg/ml
Escherichia coli [6] = assay: Antibacterial activity against wild type Escherichia coli BW25113 assessed as inhibition of bacterial growth at 256 ug/ml after 18 hrs by microtitre broth dilution assay; assay type: functional, organism-based; settings: dose 256.0 µg/ml
Escherichia coli [7] = assay: Potentiation of erythromycin-induced antibacterial activity against AcrB deficient Escherichia coli BW25113 assessed as erythromycin MIC at 256 ug/ml incubated for 18 hrs under aerobic condition by checkerboard titration assay (reference value: 32 ug/ml); assay type: functional; settings: dose 256 µg/ml
Cell membrane [8] = assay: Disruption of inner membrane potential in wild type Escherichia coli BW25113 at 512 ug/ml preincubated for 10 mins followed by glucose stimulation and CCCP addition by DiOC2 probe based fluorimetric analysis; assay type: subcellular; settings: dose 512.0 µg/ml
Escherichia coli [9] = assay: Potentiation of chloramphenicol-induced antibacterial activity against wild type Escherichia coli BW25113 assessed as chloramphenicol MIC at 128 ug/ml incubated for 18 hrs under aerobic condition by checkerboard titration assay (reference value: 16 ug/ml); assay type: functional; settings: dose 128 µg/ml
Escherichia coli [10] = assay: Potentiation of TPP-induced antibacterial activity against AcrB deficient Escherichia coli BW25113 assessed as TPP MIC at 256 ug/ml incubated for 18 hrs under aerobic condition by checkerboard titration assay (reference value: 256 ug/ml); assay type: functional; settings: dose 256 µg/ml
Cell membrane [11] = assay: Induction of outer membrane permeabilization in wild type Escherichia coli BW25113 assessed as increase in nitrocefin hydrolysis at 512 ug/ml measured for 30 mins in presence of CCCP by spectrophotometry analysis; assay type: subcellular; settings: dose 512.0 µg/ml
Escherichia coli [12] = assay: Potentiation of TPP-induced antibacterial activity against wild type Escherichia coli BW25113 assessed as TPP MIC at 256 ug/ml incubated for 18 hrs under aerobic condition by checkerboard titration assay (reference value: 1024 ug/ml); assay type: functional; settings: dose 256 µg/ml
Escherichia coli [13] = assay: Potentiation of chloramphenicol-induced antibacterial activity against wild type Escherichia coli BW25113 assessed as chloramphenicol MIC at 256 ug/ml incubated for 18 hrs under aerobic condition by checkerboard titration assay (reference value: 16 ug/ml); assay type: functional; settings: dose 256 µg/ml
Escherichia coli [14] = assay: Antibacterial activity against AcrB deficient Escherichia coli BW25113 assessed as inhibition of bacterial growth at 256 ug/ml after 18 hrs by microtitre broth dilution assay; assay type: functional, organism-based; settings: dose 256.0 µg/ml
Escherichia coli [15] = assay: Potentiation of TPP-induced antibacterial activity against wild type Escherichia coli BW25113 assessed as TPP MIC at 128 ug/ml incubated for 18 hrs under aerobic condition by checkerboard titration assay (reference value: 1024 ug/ml); assay type: functional; settings: dose 128 µg/ml
Escherichia coli [16] = assay: Potentiation of chloramphenicol-induced antibacterial activity against AcrB deficient Escherichia coli BW25113 assessed as chloramphenicol MIC at 512 ug/ml incubated for 18 hrs under aerobic condition by checkerboard titration assay (reference value: 2 ug/ml); assay type: functional; settings: dose 512 µg/ml
Escherichia coli [17] = assay: Potentiation of TPP-induced antibacterial activity against wild type Escherichia coli BW25113 assessed as fold reduction in TPP MIC at 256 ug/ml incubated for 18 hrs under aerobic condition by checkerboard titration assay relative to TPP MIC alone; assay type: functional; settings: dose 256 µg/ml
Escherichia coli [18] = assay: Potentiation of TPP-induced antibacterial activity against AcrB deficient Escherichia coli BW25113 assessed as TPP MIC at 512 ug/ml incubated for 18 hrs under aerobic condition by checkerboard titration assay (reference value: 256 ug/ml); assay type: functional; settings: dose 512 µg/ml
Escherichia coli [19] = assay: Potentiation of chloramphenicol-induced antibacterial activity against wild type Escherichia coli BW25113 assessed as chloramphenicol MIC at 512 ug/ml incubated for 18 hrs under aerobic condition by checkerboard titration assay (reference value: 16 ug/ml); assay type: functional; settings: dose 512 µg/ml
Escherichia coli [20] = assay: Potentiation of rifampicin-induced antibacterial activity against wild type Escherichia coli BW25113 assessed as rifampicin MIC at 512 ug/ml incubated for 18 hrs under aerobic condition by checkerboard titration assay (reference value: 16 ug/ml); assay type: functional; settings: dose 512 µg/ml
Escherichia coli [21] = assay: Antibacterial activity against Wild type Escherichia coli BW25113 assessed as inhibition of AcrB efflux pump by mesuring the glucose-induced nile red efflux at 500 uM preincubated with CCCP for 15 mins followed by compound addition after 15 mins nile red added and incubated for 3 hrs in shaker by fluorimetric analysis; assay type: functional, organism-based; settings: time 195.0 min
Escherichia coli [22] = assay: Potentiation of erythromycin-induced antibacterial activity against wild type Escherichia coli BW25113 assessed as erythromycin MIC at 512 ug/ml incubated for 18 hrs under aerobic condition by checkerboard titration assay (reference value: 128 ug/ml); assay type: functional; settings: dose 512 µg/ml
Escherichia coli [23] = assay: Potentiation of TPP-induced antibacterial activity against wild type Escherichia coli BW25113 assessed as TPP MIC at 512 ug/ml incubated for 18 hrs under aerobic condition by checkerboard titration assay (reference value: 1024 ug/ml); assay type: functional; settings: dose 512 µg/ml
Escherichia coli [24] = assay: Potentiation of chloramphenicol-induced antibacterial activity against wild type Escherichia coli BW25113 assessed as fold reduction in chloramphenicol MIC at 512 ug/ml incubated for 18 hrs under aerobic condition by checkerboard titration assay relative to chloramphenicol MIC alone; assay type: functional; settings: dose 512 µg/ml
Escherichia coli [25] = assay: Potentiation of erythromycin-induced antibacterial activity against AcrB deficient Escherichia coli BW25113 assessed as erythromycin MIC at 512 ug/ml incubated for 18 hrs under aerobic condition by checkerboard titration assay (reference value: 32 ug/ml); assay type: functional; settings: dose 512 µg/ml

MIC (Escherichia coli [1]) | MIC (Escherichia coli [2]) | MIC (Escherichia coli [3]) | MIC (Escherichia coli [4]) | MIC (Escherichia coli [5]) | MIC (Escherichia coli [7]) | Activity (Cell membrane [8]) | MIC (Escherichia coli [9]) | MIC (Escherichia coli [10]) | Activity (Cell membrane [11]) | MIC (Escherichia coli [12]) | MIC (Escherichia coli [13]) | MIC (Escherichia coli [15]) | MIC (Escherichia coli [16]) | MIC (Escherichia coli [19]) | MIC (Escherichia coli [22]) | MIC (Escherichia coli [23]) | Compound | fold change (FC) (Escherichia coli [17]) | Activity (Escherichia coli [21]) | also measured
 |  | 2 µg/mL | 16 µg/mL | 128 µg/mL |  | Active |  | 256 µg/mL | Active | 1020 µg/mL | 16 µg/mL |  |  | 16 µg/mL | 128 µg/mL | 512 µg/mL | O=C(Nc1ccccc1)c1cc(OCc2ccccc2)c2ccccc2c1 |  | Active | MIC (Escherichia coli [20]): 8 µg/mL
 |  |  | 16 µg/mL | 128 µg/mL |  |  |  |  |  | 1020 µg/mL | 8 µg/mL |  | 0.5 µg/mL | 2 µg/mL | 128 µg/mL | 1020 µg/mL | O=C(Nc1ccccc1C(F)(F)F)c1cc(OCc2ccccc2)c2ccccc2c1 |  |  | fold change (FC) (Escherichia coli [24]): 8; MIC (Escherichia coli [25]): 16 µg/mL
16 µg/mL | 128 µg/mL | 2 µg/mL | 4 µg/mL | 64 µg/mL | 32 µg/mL | Active | 16 µg/mL | 256 µg/mL | Active | 256 µg/mL | 4 µg/mL | 1020 µg/mL |  |  |  |  | O=C(NCc1ccccc1Cl)c1cc(OCc2ccccc2)c2ccccc2c1 | 4 | Active | 

Continued, molecule first:

Compound | MIC (Escherichia coli [1]) | MIC (Escherichia coli [2]) | MIC (Escherichia coli [3]) | MIC (Escherichia coli [4]) | MIC (Escherichia coli [5]) | MIC (Escherichia coli [7]) | Activity (Cell membrane [8]) | MIC (Escherichia coli [9]) | MIC (Escherichia coli [10]) | Activity (Cell membrane [11]) | MIC (Escherichia coli [12]) | MIC (Escherichia coli [13]) | MIC (Escherichia coli [15]) | MIC (Escherichia coli [16]) | MIC (Escherichia coli [19]) | MIC (Escherichia coli [22]) | MIC (Escherichia coli [23]) | fold change (FC) (Escherichia coli [17]) | Activity (Escherichia coli [21]) | also measured
NC(=O)c1cc(OCCNCc2ccco2)c2ccccc2c1 | 16 µg/mL | 128 µg/mL | 1 µg/mL | 16 µg/mL | 128 µg/mL | 16 µg/mL | inactive | 16 µg/mL | 256 µg/mL | Active | 512 µg/mL | 16 µg/mL | 1020 µg/mL |  |  |  |  |  |  | Activity (Escherichia coli [6]): inactive; Activity (Escherichia coli [14]): Active
CCCCCCNC(=O)c1cc(OCc2ccccc2)c2ccccc2c1 | 16 µg/mL | 128 µg/mL |  | 4 µg/mL | 128 µg/mL |  | Active | 8 µg/mL |  | Active | 256 µg/mL | 4 µg/mL | 1020 µg/mL | 2 µg/mL |  |  |  | 4 |  | MIC (Escherichia coli [18]): 256 µg/mL
